Assays:
Type in all cases: organism-based
Set-up in all cases: route oral
Details in all cases: in vivo, 672 h
Mus musculus [1] = assay: Toxicity in diet-induced obese C57Bl/6 mouse assessed as change in AST level at 150 mg/kg/day, po for 4 weeks administered with high-fat diet (reference value: 128.00 +/- 20.59 U/L)
Mus musculus [2] = assay: Toxicity in diet-induced obese C57Bl/6 mouse assessed as change in ALT level at 150 mg/kg/day, po for 4 weeks administered with high-fat diet (reference value: 29.6 +/- 8.29 U/L)
Mus musculus [3] = assay: Toxicity in diet-induced obese C57Bl/6 mouse assessed as change in food intake at 150 mg/kg/day, po for 4 weeks administered with high-fat diet
Mus musculus [4] = assay: Toxicity in diet-induced obese C57Bl/6 mouse assessed as change in ALT level at 150 mg/kg/day, po for 4 weeks administered with high-fat diet (reference value: 33.00 +/- 18.23 U/L)
Mus musculus [5] = assay: Toxicity in diet-induced obese C57Bl/6 mouse assessed as change in AST level at 150 mg/kg/day, po for 4 weeks administered with high-fat diet (reference value: 125.00 +/- 35.00 U/L)

For `CN(C)C(=N)N=C(N)N` [METFORMIN], the Activity (Mus musculus [1]) was 172 U/L, the Activity (Mus musculus [2]) was 46.29 U/L and the Activity (Mus musculus [3]) was “Non-toxic”. For the same compound, the Activity (Mus musculus [4]) was 21.67 U/L and the Activity (Mus musculus [5]) was 110 U/L.

Source: ChEMBL document CHEMBL3352801, “Synthesis and lipid-lowering evaluation of 3-methyl-1H-purine-2,6-dione derivatives as potent and orally available anti-obesity agents” (Eur J Med Chem, 2014)
